{"source": "patent US11504336B2", "about": "“Extended release pharmaceutical composition of clozapine” (INTAS PHARMACEUTICALS LTD., priority 2016, dated 2022)", "key": {"[1]": {"assay": "Dissolution of the example 7 composition in media of different pH (Basket/100 RPM/900 ml)", "assay_type": "physicochemical", "conditions": "0.1N HCl vs phosphate buffer pH 6.0 and pH 6.8"}, "[2]": {"conditions": "cited from earlier work"}, "[3]": {"conditions": "cited from earlier work", "remark": "listed apart in the source"}}}
{"smiles": "CN1CCN(C2=Nc3cc(Cl)ccc3Nc3ccccc32)CC1", "note": "[Clozapine, 8-chloro-11-(4-methyl-1-piperazinyl)-5H-dibenzo[b,e][1,4]diazepine]", "values": [{"measurement": "solubility behaviour concluded from dissolution data", "setting": "[1]", "result": "pH dependent solubility"}, {"measurement": "dose that reaches systemic circulation unchanged", "setting": "[2]; extensive first pass metabolism", "result": "27-50%"}, {"measurement": "plasma half-life, mean value", "setting": "[2]; wide inter-individual variation", "result": "6 ± 1.5", "unit": "h"}, {"measurement": "solubility in acidic pH", "setting": "[3]; acidic pH", "result": "soluble in acidic pH"}, {"measurement": "solubility in basic pH", "setting": "[3]; basic pH", "result": "practically insoluble in basic pH"}, {"measurement": "solubility in intestinal pH", "setting": "[3]; intestinal pH", "result": "insoluble in intestinal pH"}, {"measurement": "solubility in water", "setting": "[3]; water", "result": "very slightly soluble in water"}]}
